Like-named read-outs stand apart in the source and are kept apart here.
Assays:
[1] = tested on: Galium aparine (cleavers, GALAP); assay: Greenhouse postemergence trial GALAP; type: in vivo; conditions: c1-3 Compound A 7.5/10/15; c4-6 Clopyralid 30/60/120; c7-9, c10-12, c13-15 A 7.5/10/15 + Clopyralid 30, 60, 120 g/ha
Protocol: (§1) Seeds of the desired test plant species were planted in a 90:10% v/v (volume/volume) mixture of PRO-MIX® BX (Premier Tech Horticulture, Quakertown, PA, USA) and PROFILE® GREENS GRADE™ (Profile Products LLC, Buffalo Grove, IL, USA) planting mixture, which typically has a pH of 5.2 to 6.2 and an organic matter content of at least 50 percent, in plastic pots with a surface area of 103.2 square centimeters (cm^2). […] The plants were grown for 7-36 days (d) in a greenhouse with an approximate 14-hour (h) photo-period which was maintained at about 23° C. during the day and 22° C. during the night. Nutrients and water were added on a regular basis and supplemental lighting was provided with overhead metal halide 1000-Watt lamps as necessary. The plants were employed for testing when they reached the second or third true leaf stage.
(§2) Emulsifiable concentrates of each of each pyridine carboxylate herbicide (Compound A or Compound B) were prepared at 100 grams acid equivalent per liter (g ae/L). The emulsifiable concentrates also included a safener, cloquintocet-mexyl, at 120 grams active ingredient per liter (g ai/L), unless otherwise noted below. An aliquot of each emulsifiable concentrate was placed in a 25 mL glass vial and diluted with an aqueous mixture of 1.25% (v/v) ACTIROB® B esterified rapeseed oil (Bayer Crop Science, Research Triangle Park, NC, USA) or MSO® Concentrate with LECI-TECH® methylated soybean oil (Loveland Products, Loveland, CO, USA) to obtain concentrated stock solutions at the highest application rate for each herbicide, based upon a 12 milliliter (mL) application volume at a rate of 187 liters per hectare (L/ha). The concentrated stock solutions were further diluted with an aqueous mixture of 1.25% v/v ACTIROB® B or MSO® Concentrate with LECI-TECH® to obtain stock solutions at reduced application rates for each herbicide. Spray solutions of the herbicide combinations (Compound A or Compound B plus synthetic auxin herbicide or auxin transport inhibitor) were prepared by adding weighed amounts or aliquots of the synthetic auxin herbicide or auxin transport inhibitor to the stock solutions of Compound A or Compound B to form 12-mL spray solutions in two-way combinations.
(§3) The spray solutions were applied to the plant material with an overhead Mandel track sprayer equipped with 8002E nozzles calibrated to deliver 187 L/ha over an application area of 0.503 square meters (m^2) at a spray height of 18 inches (43 centimeters (cm)) above the average plant canopy. Control plants were sprayed in the same manner with the solvent blank. All pyridine carboxylate herbicide (component a) application rates are given as “g ae/ha” and all synthetic auxin herbicide or auxin transport inhibitor (component b) application rates are given as “g ai/ha.”
(§4) The treated plants and control plants were placed in a greenhouse as described above and watered by sub-irrigation to prevent wash-off of the test compounds. After 20-22 d, the condition of the test plants as compared with that of the control plants was determined visually and scored on a scale of 0 to 100 percent where 0 corresponds to no injury and 100 corresponds to complete kill.

[2] = tested on: Veronica hederifolia (ivyleaf speedwell, VERHE); assay: Greenhouse postemergence trial VERHE; type: in vivo
Protocol: as §1, §2, §3, §4

[3] = tested on: Papaver rhoeas (corn poppy, PAPRH); assay: Greenhouse postemergence trial PAPRH; type: in vivo; conditions: c1-3 Compound A 7.5/10/15; c4-6 Clopyralid 30/60/120; c7-9, c10-12, c13-15 A 7.5/10/15 + Clopyralid 30, 60, 120 g/ha
Protocol: as §1, §2, §3, §4

[4] = tested on: Papaver rhoeas (corn poppy), herbicide-resistant (PAPRH-R); assay: Greenhouse postemergence trial PAPRH-R; type: in vivo
Protocol: as §1, §2, §3, §4

[5] = tested on: Capsella bursa-pastoris (shepherd's purse, CAPBP); assay: Greenhouse postemergence trial CAPBP; type: in vivo; conditions: c1-3 Compound A 7.5/10/15; c4-6 Clopyralid 30/60/120; c7-9, c10-12, c13-15 A 7.5/10/15 + Clopyralid 30, 60, 120 g/ha
Protocol: as §1, §2, §3, §4

[6] = tested on: Stellaria media (chickweed, STEME); assay: Greenhouse postemergence trial STEME; type: in vivo
Protocol: as §1, §2, §3, §4

[7] = tested on: Matricaria inodora (false chamomile, MATIN); assay: Greenhouse postemergence trial MATIN; type: in vivo; conditions: c1-3 Compound A 7.5/10/15; c4-6 Clopyralid 30/60/120; c7-9, c10-12, c13-15 A 7.5/10/15 + Clopyralid 30, 60, 120 g/ha
[8] = tested on: Lamium purpureum (purple deadnettle, LAMPU); assay: Greenhouse postemergence trial LAMPU; conditions: c1-3 Compound A 7.5/10/15; c4-6 Clopyralid 30/60/120; c7-9, c10-12, c13-15 A 7.5/10/15 + Clopyralid 30, 60, 120 g/ha
[9] = tested on: Viola tricolor (wild pansy, VIOTR); assay: Greenhouse postemergence trial VIOTR;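 also: greenhouse plants sprayed at second to third true leaf stage, injury rated visually after 20-22 d against solvent-blank sprayed controls, 0 meaning no injury and 100 complete kill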
Protocol: as §1, §2, §3, §4

[10] = tested on: Brassica napus (winter rape, BRSNW); assay: Greenhouse postemergence trial BRSNW; type: in vivo
[11] = tested on: Polygonum convolvulus (wild buckwheat, POLCO); assay: Greenhouse postemergence trial POLCO; type: in vivo
[12] = tested on: Cirsium arvense (Canadian thistle, CIRAR); assay: Greenhouse postemergence trial CIRAR; type: in vivo
[13] = tested on: Kochia scoparia (kochia, KCHSC); assay: Greenhouse postemergence trial KCHSC; type: in vivo
Protocol: as §1, §2, §3, §4

[14] = tested on: Chenopodium album L. (common lambsquarters, CHEAL); assay: Greenhouse postemergence trial CHEAL; type: in vivo;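 also: greenhouse plants sprayed at second to third true leaf stage, injury rated by eye after 20-22 d versus solvent-blank sprayed controls, 0 = no injury, 100 = complete kill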
Protocol: The plants were grown for 7-36 days (d) in a greenhouse with an approximate 14-hour (h) photo-period which was maintained at about 23° C. during the day and 22° C. during the night. Nutrients and water were added on a regular basis and supplemental lighting was provided with overhead metal halide 1000-Watt lamps as necessary. The plants were employed for testing when they reached the second or third true leaf stage.
The emulsifiable concentrates also included a safener, cloquintocet-mexyl, at 120 grams active ingredient per liter (g ai/L), unless otherwise noted below.
Control plants were sprayed in the same manner with the solvent blank. All pyridine carboxylate herbicide (component a) application rates are given as “g ae/ha” and all synthetic auxin herbicide or auxin transport inhibitor (component b) application rates are given as “g ai/ha.”
as §4

[15] = tested on: Amaranthus retroflexus (pigweed, AMARE); assay: Greenhouse postemergence trial AMARE; type: in vivo;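 also: Greenhouse-grown plants sprayed at second to third true leaf stage, injury rated by eye after 20-22 d versus solvent-blank sprayed controls, 0 = no injury, 100 = complete kill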
[16] = tested on: Matricaria chamomilla (wild chamomile, MATCH); assay: Greenhouse postemergence trial MATCH; type: in vivo;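 also: greenhouse plants sprayed at second to third true leaf stage, injury rated by eye 20-22 d later versus solvent-blank controls on 0–100 scale, 0 no injury, 100 complete kill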
[17] = tested on: Triticum aestivum (spring wheat, TRZAS); type: in vivo
[18] = tested on: Hordeum vulgare (spring barley, HORVS); type: in vivo
[19] = tested on: Veronica persica (bird's-eye speedwell, VERPE); assay: Greenhouse postemergence trial VERPE; type: in vivo; conditions: Compound B 10 g/ha (Table 39)
Protocol: as §1, §2, §3, §4

[20] = tested on: Matricaria discoidea (pineapple weed, MATMT); assay: Greenhouse postemergence trial MATMT; type: in vivo
[21] = tested on: Rumex obtusifolius (broad-leaf dock, RUMOB); assay: Greenhouse postemergence trial RUMOB; type: in vivo
Protocol: as §1, §2, §3, §4

[22] = tested on: Abutilon theophrasti (velvetleaf, ABUTH); assay: Greenhouse postemergence trial ABUTH; type: in vivo
Protocol: as §1, §2, §3, §4

[23] = tested on: Glycine max (volunteer soybean, GLXMA); assay: Greenhouse postemergence trial GLXMA; type: in vivo
Protocol: as §1, §2, §3, §4

[24] = tested on: Helianthus annuus (common sunflower, HELAN); assay: Greenhouse postemergence trial HELAN; type: in vivo
[25] = tested on: Ipomoea hederacea (ivyleaf morningglory, IPOHE); assay: Greenhouse postemergence trial IPOHE; type: in vivo
Protocol: as §1, §2, §3, §4

[26] = c1-3 Compound A 7.5/10/15, c4-6 Clopyralid 30/60/120, c7-9, c10-12, c13-15 A 7.5/10/15 + Clopyralid 30, 60, 120 g/ha

SMILES: O=C(O)c1nc(Cl)ccc1Cl [Clopyralid, clopyralid, reference compound]
- % visual injury [1]: 0%
- % visual injury [2, 26]: 0%
- % visual injury [3]: 0%
- % visual injury [4, 26]: 0%
- % visual injury [5]: 0%
- % visual injury [6, 26]: 0%
- % visual injury [7]: 35%
- % visual injury [8]: 0%
- % visual injury [9, 26]: 0%

SMILES: C#CCOC(=O)c1nc(-c2ccc3cc[nH]c3c2F)c(F)c(N)c1Cl [Compound B, propargyl 4-amino-3-chloro-5-fluoro-6-(7-fluoro-1H-indol-6-yl)pyridine-2-carboxylate]
- plant injury at 10 g/ha ([10]; Brassica napus, post-emergence, BRSNW, applied alone, 10 g/ha, read-out: % visual injury, Obs): 73%
- BRSNW % visual injury Obs ([10]; Compound B 10 g/ha (Table 36)): 73%
- BRSNW % visual injury Obs ([10]; Compound B 10 g/ha (Table 37)): 73%
- BRSNW % visual injury Obs ([10]; Compound B 10 g/ha (Table 39)): 93%
- POLCO % visual injury Obs ([11]; Compound B 10 g/ha (Table 36)): 97%
- POLCO % visual injury Obs ([11]; Compound B 10 g/ha (Table 40)): 90%
- POLCO % visual injury Obs ([11]; Compound B 10 g/ha (Table 41)): 90%
- CIRAR % visual injury Obs ([12]; Compound B 10 g/ha (Table 36)): 25%
- CIRAR % visual injury Obs ([12]; Compound B 10 g/ha (Table 37)): 25%
- CIRAR % visual injury Obs ([12]; Compound B 10 g/ha (Table 40)): 55%
- CIRAR % visual injury Obs ([12]; Compound B 10 g/ha (Table 41)): 55%
- KCHSC % visual injury Obs ([13]; Compound B 10 g/ha (Table 40)): 73%
- KCHSC % visual injury Obs ([13]; Compound B 10 g/ha (Table 41)): 73%
- CHEAL % visual injury Obs ([14]; Compound B 10 g/ha (Table 40)): 93%
- CHEAL % visual injury Obs ([14]; Compound B 10 g/ha (Table 41)): 93%
- % visual injury, Obs ([15]; AMARE, applied alone, 10 g/ha): 84%
- AMARE % visual injury Obs ([15]; Compound B 10 g/ha (Table 36)): 84%
- AMARE % visual injury Obs ([15]; Compound B 10 g/ha (Table 40)): 73%
- AMARE % visual injury Obs ([15]; Compound B 10 g/ha (Table 41)): 73%
- MATCH % visual injury Obs ([16]; Compound B 10 g/ha (Table 39)): 20%
- % visual injury, Obs ([16]; MATCH, applied alone, 10 g/ha): 18%
- TRZAS % visual injury Obs ([17]; Compound B 10 g/ha (Table 36)): 0%
- TRZAS % visual injury Obs ([17]; Compound B 10 g/ha (Table 37)): 0%
- % visual injury, Obs ([17]; TRZAS, applied alone, 10 g/ha): 0%
- HORVS % visual injury Obs ([18]; Compound B 10 g/ha (Table 36)): 0%
- HORVS % visual injury Obs ([18]; Compound B 10 g/ha (Table 37)): 0%
- % visual injury, Obs ([18]; HORVS, applied alone, 10 g/ha): 0%
- VERHE % visual injury Obs ([2]; Compound B 10 g/ha (Table 39)): 70%
- VERVE % visual injury Obs [19]: 80%
- PAPRH-R % visual injury Obs ([4]; Compound B 10 g/ha (Table 38)): 95%
- PAPRH-R % visual injury Obs ([4]; Compound B 10 g/ha (Table 39)): 95%
- STEME % visual injury Obs ([6]; Compound B 10 g/ha (Table 40)): 90%
- STEME % visual injury Obs ([6]; Compound B 10 g/ha (Table 41)): 90%
- MATMT % visual injury Obs ([20]; Compound B 10 g/ha (Table 38)): 20%
- MATMT % visual injury Obs ([20]; Compound B 10 g/ha (Table 39)): 20%
- RUMOB % visual injury Obs ([21]; Compound B 10 g/ha (Table 40)): 15%
- RUMOB % visual injury Obs ([21]; Compound B 10 g/ha (Table 41)): 15%
- ABUTH % visual injury Obs ([22]; Compound B 10 g/ha (Table 40)): 68%
- ABUTH % visual injury Obs ([22]; Compound B 10 g/ha (Table 41)): 68%
- GLXMA % visual injury Obs ([23]; Compound B 10 g/ha (Table 40)): 73%
- GLXMA % visual injury Obs ([23]; Compound B 10 g/ha (Table 41)): 73%
- HELAN % visual injury Obs ([24]; Compound B 10 g/ha (Table 40)): 100%
- HELAN % visual injury Obs ([24]; Compound B 10 g/ha (Table 41)): 100%
- IPOHE % visual injury Obs ([25]; Compound B 10 g/ha (Table 40)): 0%
- IPOHE % visual injury Obs ([25]; Compound B 10 g/ha (Table 41)): 0%
- VIOTR % visual injury Obs ([9]; Compound B 10 g/ha (Table 40)): 8%
- VIOTR % visual injury Obs ([9]; Compound B 10 g/ha (Table 41)): 8%

From patent US12568967B2, “Compositions comprising pyridine carboxylate herbicides with synthetic auxin herbicides or auxin transport inhibitors” (priority 2018, dated 2026)
